The source made the active and inactive calls. The rule behind the calls is not given here.
System: Plasmodium falciparum
Assay: Antimalarial activity against synchronous ring stage Plasmodium falciparum 3D7 infected in human Erythrocyte assessed as inhibition of parasite growth incubated for 48 hrs by [3H]-hypoxanthine incorporation assay
Type: functional, organism-based
Conditions: 3D7, Erythrocyte
With `O=S(=O)(c1nnc(N2CCC3(CCCO3)CC2)o1)C1CCCCC1` the IC50 was greater than 50 µM.
Work on `O=S(=O)(c1nnc(N2C3CCC2CC3)o1)C1CCCCC1` yielded an IC50 of 5.76 µM.
Compound `O=S(=O)(c1nnc(N2CCOCC2)o1)C1CCCCC1` has an IC50 greater than 50 µM.
`O=S(=O)(c1nnc(N2CCOCC2)o1)C1CCCCCC1` showed an IC50 greater than 25 µM.

System: Plasmodium falciparum
Assay: Antimalarial activity against synchronous ring stage Plasmodium falciparum 3D7 infected in human Erythrocyte assessed as inhibition of parasite growth incubated for 96 hrs by [3H]-hypoxanthine incorporation assay
Type: functional, organism-based
Conditions: 3D7, Erythrocyte
Compound `O=S(=O)(c1nnc(N2CCC3(CCCO3)CC2)o1)C1CCCCC1` has an IC50 of 0.77 µM.
In the case of `O=S(=O)(c1nnc(N2C3CCC2CC3)o1)C1CCCCC1`, the IC50 is reported as 0.83 µM.
`O=S(=O)(c1nnc(N2CCOCC2)o1)C1CCCCC1` gave an IC50 of 0.55 µM.
For `O=S(=O)(c1nnc(N2CCOCC2)o1)C1CCCCCC1`, the IC50 was 0.18 µM.

System: not listed separately
Assay: Selectivity ratio of IC50 for antimalarial activity against synchronous ring stage Plasmodium falciparum 3D7 infected in human Erythrocyte assessed as inhibition of parasite growth incubated for 48 hrs by [3H]-hypoxanthine incorporation assay to IC50 for antimalarial activity against synchronous ring stage Plasmodium falciparum 3D7 infected in human Erythrocyte assessed as inhibition of parasite growth incubated for 48 hrs by [3H]-hypoxanthine incorporation assay
Type: functional
Conditions: not given
With `O=S(=O)(c1nnc(N2CCC3(CCCO3)CC2)o1)C1CCCCC1` the “Ratio IC50” value was greater than 65.
For `O=S(=O)(c1nnc(N2C3CCC2CC3)o1)C1CCCCC1`, the “Ratio IC50” value was 7.
In the case of `O=S(=O)(c1nnc(N2CCOCC2)o1)C1CCCCC1`, the “Ratio IC50” value is reported as greater than 91.
In the case of `O=S(=O)(c1nnc(N2CCOCC2)o1)C1CCCCCC1`, the “Ratio IC50” value is reported as greater than 137.

System: not listed separately
Assay: Cytotoxicity against human NFF cells assessed as reduction in cell viability incubated for 72 hrs by SRB assay
Type: toxicity, cell-based
Conditions: not given
For `CCN(CC)CCCC(C)Nc1ccnc2cc(Cl)ccc12` (configuration not stated) [CHLOROQUINE], the IC50 at 72 h was 36.7 µM.
`O=S(=O)(c1nnc(N2CCC3(CCCO3)CC2)o1)C1CCCCC1` showed an IC50 at 72 h greater than 100 µM.
`O=S(=O)(c1nnc(N2C3CCC2CC3)o1)C1CCCCC1` gave an IC50 at 72 h of 33.5 µM.
`O=S(=O)(c1nnc(N2CCOCC2)o1)C1CCCCC1` gave an IC50 at 72 h greater than 100 µM.
For `O=S(=O)(c1nnc(N2CCOCC2)o1)C1CCCCCC1`, the IC50 at 72 h was greater than 100 µM.

System: not listed separately
Assay: Selectivity index, ratio of IC50 for cytotoxicity against human NFF cells to IC50 for antimalarial activity against synchronous ring stage Plasmodium falciparum 3D7 infected in human Erythrocyte assessed as inhibition of parasite growth incubated for 96 hrs
Type: toxicity, cell-based
Conditions: read-out: Ratio IC50
Work on `O=S(=O)(c1nnc(N2CCC3(CCCO3)CC2)o1)C1CCCCC1` yielded a selectivity ratio at 96 h greater than 135.
`O=S(=O)(c1nnc(N2C3CCC2CC3)o1)C1CCCCC1` gave a selectivity ratio at 96 h of 40.
`O=S(=O)(c1nnc(N2CCOCC2)o1)C1CCCCC1` gave a selectivity ratio at 96 h greater than 182.
Compound `O=S(=O)(c1nnc(N2CCOCC2)o1)C1CCCCCC1` has a selectivity ratio at 96 h greater than 769.

System: Plasmodium falciparum
Assay: Antimalarial activity against multidrug-resistant synchronous ring stage Plasmodium falciparum Dd2 infected in human Erythrocyte assessed as inhibition of parasite growth incubated for 48 hrs by [3H]-hypoxanthine incorporation assay
Type: functional, organism-based
Conditions: not given
Work on `O=S(=O)(c1nnc(N2CCOCC2)o1)C1CCCCC1` yielded an IC50 greater than 25 µM.

System: Plasmodium falciparum
Assay: Antimalarial activity against multidrug-resistant synchronous ring stage Plasmodium falciparum Dd2 infected in human Erythrocyte assessed as inhibition of parasite growth incubated for 96 hrs by [3H]-hypoxanthine incorporation assay
Type: functional, organism-based
Conditions: not given
Compound `O=S(=O)(c1nnc(N2CCOCC2)o1)C1CCCCC1` has an IC50 of 0.5 µM.

System: not listed separately
Assay: Selectivity ratio of IC50 for antimalarial activity against multidrug-resistant synchronous ring stage Plasmodium falciparum Dd2 infected in human Erythrocyte assessed as inhibition of parasite growth incubated for 48 hrs by [3H]-hypoxanthine incorporation assay to IC50 for antimalarial activity against multidrug-resistant synchronous ring stage Plasmodium falciparum Dd2 infected in human …
Type: functional
Conditions: not given
For `O=S(=O)(c1nnc(N2CCOCC2)o1)C1CCCCC1`, the “Ratio IC50” value was greater than 50.

System: Plasmodium falciparum
Assay: Resistance index, ratio of IC50 for antimalarial activity against multidrug-resistant synchronous ring stage Plasmodium falciparum Dd2 infected in human Erythrocyte assessed as inhibition of parasite growth incubated for 96 hrs by [3H]-hypoxanthine incorporation assay to IC50 for antimalarial activity against synchronous ring stage Plasmodium falciparum 3D7 infected in human Erythrocyte assessed …
Type: toxicity, organism-based
Conditions: not given
For `O=S(=O)(c1nnc(N2CCOCC2)o1)C1CCCCC1`, the “Ratio IC50” value was 1.

System: Plasmodium falciparum
Assay: Antimalarial activity against synchronous ring stage Plasmodium falciparum 3D7 infected in human Erythrocyte assessed as inhibition of parasite growth incubated for 96 hrs supplemented with IPP by [3H]-hypoxanthine incorporation assay
Type: functional, organism-based
Conditions: 3D7, Erythrocyte
With `CCC[C@@H]1C[C@@H](C(=O)N[C@@H]([C@H]2O[C@H](SC)[C@H](O)[C@@H](O)[C@H]2O)[C@H](C)Cl)N(C)C1` [CLINDAMYCIN] the IC50 was greater than 25 µM.
Compound `O=S(=O)(c1nnc(N2CCOCC2)o1)C1CCCCC1` has an IC50 of 1.79 µM.

System: not listed separately
Assay: Selectivity ratio of IC50 for antimalarial activity against synchronous ring stage Plasmodium falciparum 3D7 infected in human Erythrocyte assessed as inhibition of parasite growth incubated for 96 hrs supplemented with IPP by [3H]-hypoxanthine incorporation assay to IC50 for antimalarial activity against synchronous ring stage Plasmodium falciparum 3D7 infected in human Erythrocyte assessed as …
Type: functional
Conditions: not given
In the case of `CCC[C@@H]1C[C@@H](C(=O)N[C@@H]([C@H]2O[C@H](SC)[C@H](O)[C@@H](O)[C@H]2O)[C@H](C)Cl)N(C)C1` [CLINDAMYCIN], the “Ratio IC50” value is reported as 3571.
For `O=S(=O)(c1nnc(N2CCOCC2)o1)C1CCCCC1`, the “Ratio IC50” value was 3.

System: not listed separately
Assay: Metabolic stability in human liver microsomes assessed as half life
Type: ADME, Microsome
Conditions: not given
For `O=S(=O)(c1nnc(N2CCOCC2)o1)C1CCCCC1`, the half-life was greater than 255 min.

System: not listed separately
Assay: Metabolic stability in mouse liver microsomes assessed as half life
Type: ADME, Microsome
Conditions: not given
For `O=S(=O)(c1nnc(N2CCOCC2)o1)C1CCCCC1`, the half-life was 99 min.

System: not listed separately
Assay: Apparent permeability of the compound in human Caco-2 cells across apical to basolateral side
Type: ADME, cell-based
Conditions: not given
`O=S(=O)(c1nnc(N2CCOCC2)o1)C1CCCCC1` gave a Papp A→B of 86 ×10⁻⁶ cm/s.

System: not listed separately
Assay: Cmax in non fasted female BALB/c mouse plasma at 100 mg/kg, po via gavage and measured upto 24 hrs by LC-MS analysis
Type: ADME, organism-based
Conditions: not given
With `O=S(=O)(c1nnc(N2CCOCC2)o1)C1CCCCC1` the Cmax was 7.61 µM.
With `O=S(=O)(c1nnc(N2CCOCC2)o1)C1CCCCCC1` the Cmax was 0.65 µM.

System: not listed separately
Assay: Tmax in non fasted female BALB/c mouse at 100 mg/kg, po via gavage and measured upto 24 hrs by LC-MS analysis
Type: ADME, organism-based
Conditions: in vivo
`O=S(=O)(c1nnc(N2CCOCC2)o1)C1CCCCC1` gave a Tmax of 15 min.
`O=S(=O)(c1nnc(N2CCOCC2)o1)C1CCCCCC1` showed a Tmax of 15 min.

System: not listed separately
Assay: AUC (0 to t) in non fasted female BALB/c mouse plasma at 100 mg/kg, po via gavage and measured after 7.5 hrs by LC-MS analysis
Type: ADME, organism-based
Conditions: not given
In the case of `O=S(=O)(c1nnc(N2CCOCC2)o1)C1CCCCC1`, the AUC(0-t) at 7.5 h is reported as 11.5 µM·h.
With `O=S(=O)(c1nnc(N2CCOCC2)o1)C1CCCCCC1` the AUC(0-t) at 7.5 h was 1.16 µM·h.

System: not listed separately
Assay: Toxicity in female BALB/c mouse assessed as adverse clinical effect at 116 mg/kg, po via gavage administered once for 3 days
Type: organism-based
Conditions: in vivo, 72 h, time 3 day
With `O=S(=O)(c1nnc(N2CCOCC2)o1)C1CCCCC1` the Activity was “Non-Toxic”.

System: not listed separately
Assay: Toxicity in female BALB/c mouse assessed as appearance of ruffled coats in animal at 116 mg/kg, po via gavage administered once daily for 3 days
Type: organism-based
Conditions: in vivo, 72 h, time 3 day
With `O=S(=O)(c1nnc(N2CCOCC2)o1)C1CCCCC1` the Activity was “Toxic”.

System: not listed separately
Assay: Toxicity in female BALB/c mouse assessed as effect on liver at 116 mg/kg, po via gavage administered once daily for 3 days
Type: organism-based
Conditions: in vivo, 72 h, time 3 day
For `O=S(=O)(c1nnc(N2CCOCC2)o1)C1CCCCC1`, the Activity was “Non-Toxic”.

System: not listed separately
Assay: Toxicity in female BALB/c mouse assessed as effect on kidney at 116 mg/kg, po via gavage administered once daily for 3 days
Type: organism-based
Conditions: in vivo, 72 h, time 3 day
With `O=S(=O)(c1nnc(N2CCOCC2)o1)C1CCCCC1` the Activity was “Non-Toxic”.

System: not listed separately
Assay: Toxicity in female BALB/c mouse assessed as adverse clinical effect at 116 mg/kg, po via gavage administered twice for 3 days
Type: organism-based
Conditions: in vivo, 72 h, time 3 day
For `O=S(=O)(c1nnc(N2CCOCC2)o1)C1CCCCC1`, the Activity was “Non-Toxic”.

System: not listed separately
Assay: Toxicity in female BALB/c mouse assessed as appearance of ruffled coats in animal at 116 mg/kg, po via gavage administered twice daily for 3 days
Type: organism-based
Conditions: in vivo, 72 h, time 3 day
In the case of `O=S(=O)(c1nnc(N2CCOCC2)o1)C1CCCCC1`, the Activity is reported as “Toxic”.

System: not listed separately
Assay: Toxicity in female BALB/c mouse assessed as effect on liver at 116 mg/kg, po via gavage administered twice daily for 3 days
Type: organism-based
Conditions: in vivo, 72 h, time 3 day
In the case of `O=S(=O)(c1nnc(N2CCOCC2)o1)C1CCCCC1`, the Activity is reported as “Non-Toxic”.

System: not listed separately
Assay: Toxicity in female BALB/c mouse assessed as effect on kidney at 116 mg/kg, po via gavage administered twice daily for 3 days
Type: organism-based
Conditions: in vivo, 72 h, time 3 day
With `O=S(=O)(c1nnc(N2CCOCC2)o1)C1CCCCC1` the Activity was “Non-Toxic”.

System: Plasmodium berghei
Assay: Antimalarial activity against Plasmodium berghei ANKA infected in female BALB/c mouse model assessed as reduction in parasitemia at 100 mg/kg, po qd pre-infected for 2 hrs followed by compound addition and measured after 3 days by microscopic analysis
Type: functional, organism-based
Conditions: time 3.0 day
With `O=S(=O)(c1nnc(N2CCOCC2)o1)C1CCCCC1` the Activity was “Active”.

System: Plasmodium berghei
Assay: Antimalarial activity against Plasmodium berghei ANKA infected in female BALB/c mouse model assessed as reduction in parasitemia at 100 mg/kg, po bid pre-infected for 2 hrs followed by compound addition and measured after 3 days by microscopic analysis
Type: functional, organism-based
Conditions: time 3.0 day
In the case of `O=S(=O)(c1nnc(N2CCOCC2)o1)C1CCCCC1`, the Activity is reported as “Active”.

System: Plasmodium berghei
Assay: Antimalarial activity against Plasmodium berghei ANKA infected in female BALB/c mouse model assessed as reduction in parasitemia at 10 mg/kg, po qd pre-infected for 2 hrs followed by compound addition and measured after 3 days by microscopic analysis
Type: functional, organism-based
Conditions: time 3.0 day
In the case of `CCN(CC)CCCC(C)Nc1ccnc2cc(Cl)ccc12` (configuration not stated) [CHLOROQUINE], the Activity is reported as “Active”.

System: not listed separately
Assay: Chemical stability of the compound in aqueous buffer/THF assessed as degradation measured over 24 hrs
Type: physicochemical
Conditions: not given
For `O=S(=O)(c1nnc(N2CCOCC2)o1)C1CCCCC1`, the Stability was “Stable”.

System: not listed separately
Assay: Chemical stability of the compound in 1:1 mixture of 6M aqueous hydrochloric acid/THF assessed as degradation measured over 20 hrs
Type: physicochemical
Conditions: buffer
For `O=S(=O)(c1nnc(N2CCOCC2)o1)C1CCCCC1`, the Stability was “Unstable”.

System: not listed separately
Assay: Plasma concentration in female BALB/c mouse at 100 mg/kg, po measured after 7.5 hrs
Type: ADME, organism-based
Conditions: in vivo, BLD = below limit of detection
In the case of `O=S(=O)(c1nnc(N2CCOCC2)o1)C1CCCCC1`, the Cp is reported as “Bld”.

Source: ChEMBL document CHEMBL5614431, “Discovery of 1,3,4-oxadiazoles with slow-action activity against Plasmodium falciparum malaria parasites” (Eur J Med Chem, 2024)
